Data taken from patent US9814754B2, “Combinations with a backbone-cyclized peptide” (POLYPHOR AG, priority 2012, dated 2017).
Square brackets hold non-standard residues; d marks the D form. dDab = NCC[C@@H](N)C(=O)O; Orn = NCCC[C@H](N)C(=O)O; Dab = NCC[C@H](N)C(=O)O

Assays:
Format in all cases: in vivo
[1] = tested on: Pseudomonas aeruginosa clinical isolate PA18298; experiment: Murine pneumonia model, compound 1 alone (Reference 3)
Procedure: Efficacy in Murine Pneumonia Model Against Pseudomonas aeruginosa PA18298 and Estimation of ED50
The efficacy and ED50 of the compound of formula (I) (“compound 1”) was determined against Pseudomonas aeruginosa clinical isolate PA18298 in a pneumonia model in mice. Colony counts in the lungs were determined at 18-20 hours post treatment.
(§1) Fresh overnight colonies of PA18298 from a 5% Horse Blood Agar plate were suspended in 0.9% sterile saline to approximately 10^8 CFU/ml and further diluted to approximately 4×10^7 CFU/ml. Female mice (DBA/2, outbred, 18-22 g, Charles River) were anesthetized with 0.1 ml of Zoletil (tiletamine+zolazepam) and inoculated via the nose with a pipette with 0.05 ml of the bacteria suspension containing approximately 1×10^6 CFU. 4 hours after inoculation, the mice were treated orally with 45 μl neurophen (20 mg ibuprofen/ml corresponding to approximately 30 mg/kg) as pain relief.
One vial containing 10 mg of active compound 1 was dissolved in 2 ml 0.9% sterile saline to a concentration of 5 mg/ml and was further diluted with saline to 2, 1, 0.75, 0.55, 0.275 and 0.137 mg/ml. The mice were treated subcutaneously with 0.2 ml in the neck region with a single dose at 4 hours post infection with a dose calculation based on a mean animal weight of 20 g. As positive control colistin was used in the same manner with a fixed dose of 20 mg/kg.
(§2) Colony counts were determined post inoculation at 4 hours (untreated mice) and 24 hours (treated and vehicle-only treated mice). Immediately after the mice were sacrificed, the lungs were collected and frozen at −20° C. After thawing, the organs were homogenized in 1 ml 0.9% saline. Each sample was then 10-fold diluted in saline and 20 μl spots were applied on blood agar plates. All agar plates were incubated 18-48 hours at 35° C. in ambient air.
The CFU/ml in the inoculum was determined to 7.49 log10 CFU/ml corresponding to 6.20 log10 CFU/mouse.
At 4 hours after infection the mean log10 CFU/lung was 5.05 and the CFU level declined to 2.62 at 24 hours post inoculation in the vehicle-only group.

[2] = tested on: Pseudomonas aeruginosa clinical isolate PA9349; experiment: Murine pneumonia model, compound 1 alone (Reference 2); conditions: for mean CFU level compared to the vehicle group: lungs
Procedure: Efficacy in Murine Pneumonia Model Against Pseudomonas aeruginosa PA9349 and Estimation of ED50
The efficacy and ED50 of the compound of formula (I) (“compound 1”) was determined against Pseudomonas aeruginosa clinical isolate PA9349 in a pneumonia model in mice. Colony counts in the lungs were determined at 18-20 hours post treatment.
as §1, with “PA9349” for “PA18298”, “5×10^6” for “4×10^7”, “5×10^5” for “1×10^6”
One vial containing 10 mg of active compound 1 was dissolved in 5 ml 0.9% sterile saline to a concentration of 2 mg/ml and was further 2-fold diluted with saline to 1, 0.5, 0.25, 0.125 and 0.06 mg/ml. The mice were treated subcutaneously with 0.2 ml in the neck region with a single dose at 4 hours post infection with a dose calculation based on a mean animal weight of 20 g. As positive control colistin was used in the same manner with a fixed dose of 40 mg/kg.
as §2
The CFU/ml in the inoculum was determined to 7.29 log10 CFU/ml corresponding to 5.98 log10 CFU/mouse.
At 4 hours after infection the mean log10 CFU/lung was 3.47 and the CFU level increased to 4.92 at […] post inoculation in the vehicle-only group.

[3] = tested on: Pseudomonas aeruginosa clinical isolate PAX11045; experiment: Murine pneumonia model, compound 1 in combination with ertapenem (Example 1)
Procedure: The efficacy and ED50 of the compound of formula (I) (“compound 1”) in combination with ertapenem was determined against Pseudomonas aeruginosa clinical isolate PAX11045 in a pneumonia model in mice. Colony counts in lung were determined at 20 hours post treatment.
as §1, with “PAX11045” for “PA18298”, “5×10^7” for “4×10^7”, “Zoletil” for “Zoletil (tiletamine+zolazepam)”, “10^6” for “1×10^6”
1 g of ertapenem (Invanz™, MSD Denmark Aps) was dissolved in 10 ml 0.9% sterile saline to a concentration of 100 mg/ml and further diluted with saline to 5 mg/ml. The mice were treated subcutaneously with 0.2 ml in the neck region with a single dose at 3 hours post infection corresponding to 50 mg/kg on the basis of a mean animal weight of 20 g.
The mice were treated subcutaneously with 0.2 ml in the neck region with a single dose at 4 hours post infection with a dose calculation based on a mean animal weight of 20 g.
as §2, with “10 fold” for “10-fold”, “18-24” for “18-48”
The CFU/ml in the inoculum was determined to 7.65 log10 CFU/ml corresponding to 6.35 log10 CFU/mouse.
At 4 hours after infection the mean log10 CFU/lung was 5.14 and the CFU level remained at a similar level after 24 hours in the vehicle-only group.

[4] = compound 1 alone, s.c. single dose 4 h post infection, murine lungs
[5] = compound 1 alone, s.c., murine lungs
[6] = compound 1 alone, s.c., murine lungs, sigmoidal dose-response model (variable slope)
[7] = in presence of 50 mg/kg ertapenem, murine lungs

cyclo(TWI[Dab][Orn][dDab][Dab]W[Dab][Dab]AS[dP]P) [compound 1]
CFU levels compared to vehicle treatment ([1]; 11-20 mg/kg, lungs, p<0.01-p<0.001): significant reduction of the CFU levels
Top level [1, 4]: −3.60 log10 CFU/ml
Bottom level [1, 5]: −2.48 log10 CFU/ml
Emax [1, 5]: 1.12 log10 CFU/ml
Static dose [1, 5]: 9.15 mg/kg
ED50 [1, 6]: 26.6 mg/kg
mean CFU level compared to the vehicle group ([2]; 10 mg/kg treatment group): reduction of the mean CFU level
mean CFU level compared to the vehicle group ([2]; 20 mg/kg treatment group): significant reduction
Top level [2, 4]: 1.59 log10 CFU/ml
Bottom level [2, 5]: −0.80 log10 CFU/ml
Emax [2, 5]: −2.4 log10 CFU/ml
Static dose [2, 5]: 9.15 mg/kg
ED50 [2, 6]: 7.35 mg/kg
effect on bacterial loads ([3]; 2.75 mg/kg alone, lung, p<0.001): significant effect on reducing the bacterial loads
CFU levels compared to vehicle treatment ([3]; combination of compound 1 (dose series) and ertapenem 50 mg/kg, lung, p<0.01-p<0.001): concentration dependent significant reduction of the CFU levels
Top level ([3]; compound 1 s.c. in presence of 50 mg/kg ertapenem (s.c., 3 h post infection), murine lungs): −0.34 log10 CFU/ml
1 log killing dose [3, 7]: 1.14 mg/kg
2 log killing dose [3, 7]: 1.48 mg/kg
Bottom level [3, 7]: −2.32 log10 CFU/ml
Emax [3, 7]: 1.98 log10 CFU/ml
Static dose [3, 7]: 0.63 mg/kg
ED50 ([3]; in presence of fixed dose of 50 mg/kg ertapenem, murine lungs): 1.24 mg/kg
